Measurements from patent US20230278972A1, “SUBSTITUTED HALOALKYL SULFONANILIDE HERBICIDES” (FMC Corporation, priority 2020, published 2023).

Tests used:
Type in all cases: in vivo
[1] = test system: ragweed (common ragweed, Ambrosia artemisiifolia); assay: Test A postemergence, ragweed; conditions: Postemergence; for Ragweed plant response rating: 500 g ai/ha, visual injury vs untreated controls after approx. 10 days
In short: (§1)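 Compounds in non-phytotoxic solvent with surfactant. Soil: loam/sand. Preemergence via directed soil spray after seeding; postemergence on seedlings 2–10 cm, one- to two-leaf.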

corn (Zea mays) = assay: Test A postemergence, corn; conditions: Postemergence; for Corn plant response rating: 500 g ai/ha, visual injury vs untreated controls after approx. 10 days
In short: as §1

[2] = test system: Foxtail, Giant (giant foxtail, Setaria faberi); assay: Test A preemergence, Foxtail, Giant; conditions: Preemergence; for Foxtail, Giant plant response rating: 125 g ai/ha, visual injury on 0 to 100 scale (0 no effect, 100 complete control), approximately 10 days; for Plant response rating, Foxtail, Giant: 0 to 100 scale (0 no effect, 100 complete control)
In short: as §1

[3] = test system: Ryegrass, Italian (Italian ryegrass, Lolium multiflorum); assay: Test A postemergence, Ryegrass, Italian; conditions: Postemergence; for Ryegrass, Italian plant response rating: 500 g ai/ha, visual injury vs untreated controls after approx. 10 days
In short: as §1

[4] = test system: barnyardgrass (Echinochloa crus-galli); assay: Test A postemergence, barnyardgrass; conditions: Postemergence, 0 to 100 scale (0 no effect, 100 complete control); for Barnyardgrass plant response rating: 500 g ai/ha, visual injury vs untreated controls after approx. 10 days
In short: (§2)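 Test chemicals, formulated in a non-phytotoxic solvent mixture with surfactant, were sprayed postemergence on plants 2 to 10 cm tall at the one- to two-leaf stage. Preemergence treatment was a directed soil spray onto freshly seeded pots. Both used a loam soil and sand blend.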

[5] = test system: ragweed (common ragweed, Ambrosia artemisiifolia); assay: Test A preemergence, ragweed; conditions: Preemergence; for Ragweed plant response rating: 125 g ai/ha, visual injury on 0 to 100 scale (0 no effect, 100 complete control), approximately 10 days; for Plant response rating, Ragweed: 0 to 100 scale (0 no effect, 100 complete control)
In short: as §1

[6] = test system: Ryegrass, Italian (Italian ryegrass, Lolium multiflorum); assay: Test A preemergence, Ryegrass, Italian; conditions: Preemergence; for Ryegrass, Italian plant response rating: 125 g ai/ha, visual injury on 0 to 100 scale (0 no effect, 100 complete control), approximately 10 days; for Plant response rating, Ryegrass, Italian: 0 to 100 scale (0 no effect, 100 complete control)
In short: as §1

kochia (Bassia scoparia) [7] = assay: Test A preemergence, kochia; conditions: Preemergence; for Kochia plant response rating: 125 g ai/ha, visual injury on 0 to 100 scale (0 no effect, 100 complete control), approximately 10 days; for Plant response rating, Kochia: 0 to 100 scale (0 no effect, 100 complete control)
In short: as §1

[8] = test system: barnyardgrass (Echinochloa crus-galli); assay: Test A preemergence, barnyardgrass; conditions: Preemergence; for Barnyardgrass plant response rating: 125 g ai/ha, visual injury on 0 to 100 scale (0 no effect, 100 complete control), approximately 10 days; for Plant response rating, Barnyardgrass: 0 to 100 scale (0 no effect, 100 complete control)
In short: as §1

[9] = test system: pigweed (Amaranthus retroflexus); assay: Test A preemergence, pigweed; conditions: for Pigweed plant response rating: 125 g ai/ha, visual injury on 0 to 100 scale (0 no effect, 100 complete control), approximately 10 days; for Plant response rating, Pigweed: 0 to 100 scale (0 no effect, 100 complete control)
In short: as §2

kochia (Bassia scoparia) [10] = assay: Test A postemergence, kochia; conditions: Postemergence; for Kochia plant response rating: 500 g ai/ha, visual injury vs untreated controls after approx. 10 days
In short: as §1

[11] = test system: Foxtail, Giant (giant foxtail, Setaria faberi); assay: Test A postemergence, Foxtail, Giant; conditions: Postemergence; for Foxtail, Giant plant response rating: 500 g ai/ha, visual injury vs untreated controls after approx. 10 days
In short: as §1

[12] = test system: pigweed (Amaranthus retroflexus); assay: Test A postemergence, pigweed; conditions: Postemergence; for Pigweed plant response rating: 500 g ai/ha, visual injury vs untreated controls after approx. 10 days
In short: as §1

[13] = test system: wheat (Triticum aestivum); assay: Test A postemergence, wheat; conditions: Postemergence; for Wheat plant response rating: 500 g ai/ha, visual injury vs untreated controls after approx. 10 days
In short: as §2

[14] = test system: galium (catchweed bedstraw, Galium aparine); assay: Test A postemergence, galium; conditions: Postemergence; for Galium plant response rating: 500 g ai/ha, visual injury vs untreated controls after approx. 10 days
In short: as §2

[15] = test system: blackgrass (Alopecurus myosuroides); assay: Test A postemergence, blackgrass; conditions: Postemergence, 0 to 100 scale (0 no effect, 100 complete control); for Blackgrass plant response rating: 500 g ai/ha, visual injury vs untreated controls after approx. 10 days
In short: as §1

[16] = 125 g ai/ha, 0 to 100 scale (0 no effect, 100 complete control)
[17] = 0 to 100 scale (0 no effect, 100 complete control)
[18] = 125 g ai/ha, visual injury approx. 10 days, 0 to 100 scale (0 no effect, 100 complete control)
[19] = 125 g ai/ha, visual injury approx. 10 days
[20] = 31 g ai/ha, visual injury on 0 to 100 scale (0 no effect, 100 complete control), approx. 10 days
[21] = 31 g ai/ha, visual injury, approx. 10 days

| SMILES | Plant response rating, Ragweed [1, 16] | Ragweed plant response rating [1, 17] | Plant response rating, Corn (corn (Zea mays); [18]) | Corn plant response rating (corn (Zea mays); [17]) | Foxtail, Giant plant response rating [2] | Plant response rating, Foxtail, Giant ([2]; 500 g ai/ha) | Plant response rating, Ryegrass, Italian [3, 16] | Ryegrass, Italian plant response rating [3, 17] | Plant response rating, Barnyardgrass [4, 19] | Ragweed plant response rating [5] | Ryegrass, Italian plant response rating [6] | Kochia plant response rating (kochia (Bassia scoparia) [7]) | Barnyardgrass plant response rating [8] | Pigweed plant response rating [9] | Plant response rating, Kochia (kochia (Bassia scoparia) [10]; [18]) | Plant response rating, Foxtail, Giant [11, 18] | Plant response rating, Pigweed [12, 16] | Plant response rating, Wheat [13, 16] | Plant response rating, Galium [14, 18] | Plant response rating, Blackgrass [15, 19] | other results |
| --- | --- | --- | --- | --- | --- | --- | --- | --- | --- | --- | --- | --- | --- | --- | --- | --- | --- | --- | --- | --- | --- |
| Cc1cc(C#N)c(C(=O)N(C)C)cc1NS(=O)(=O)C(F)(F)F [Compound 134] | 70 | 40 | 0 | 0 | 40 | 100 | 0 | 0 | 0 | 10 | 20 | 0 | 0 | 80 | 40 | 0 | 50 | 0 | 50 | 0 | Barnyardgrass plant response rating [4]: 10; Plant response rating, Ragweed ([5]; 500 g ai/ha): 30; Plant response rating, Ryegrass, Italian ([6]; 500 g ai/ha): 90; Plant response rating, Kochia (kochia (Bassia scoparia) [7]; 500 g ai/ha): 0; Plant response rating, Barnyardgrass ([8]; 500 g ai/ha): 40; Plant response rating, Pigweed ([9]; 500 g ai/ha): 90; Kochia plant response rating (kochia (Bassia scoparia) [10]; [17]): 70; Foxtail, Giant plant response rating [11, 17]: 10; Pigweed plant response rating [12, 17]: 90; Wheat plant response rating [13, 17]: 0; Galium plant response rating [14, 17]: 80; Blackgrass plant response rating [15]: 0 |
| Cc1cc(C)c(C2=NOC3(CCC4(CC3)OCCO4)C2)cc1NS(=O)(=O)C(F)(F)F [Compound 135] | 20 | 80 | 0 | 80 | 100 | 100 | 0 | 80 | 80 | 10 | 100 | 80 | 100 | 60 | 50 | 90 | 80 | 0 | 90 | 20 | Barnyardgrass plant response rating [4]: 90; Plant response rating, Ragweed ([5]; 500 g ai/ha): 80; Plant response rating, Ryegrass, Italian ([6]; 500 g ai/ha): 100; Plant response rating, Kochia (kochia (Bassia scoparia) [7]; 500 g ai/ha): 100; Plant response rating, Barnyardgrass ([8]; 500 g ai/ha): 100; Plant response rating, Pigweed ([9]; 500 g ai/ha): 100; Kochia plant response rating (kochia (Bassia scoparia) [10]; [17]): 70; Foxtail, Giant plant response rating [11, 17]: 90; Pigweed plant response rating [12, 17]: 70; Wheat plant response rating [13, 17]: 70; Galium plant response rating [14, 17]: 90; Blackgrass plant response rating [15]: 60 |
| Cc1cc(C)c(N(S(=O)(=O)C(F)(F)F)S(=O)(=O)C(F)(F)F)cc1C1=NOC2(CCC3(CC2)OCCO3)C1 [Compound 136] | 60 | 50 | 0 | 30 | 100 | 100 | 80 | 0 | 20 | 50 | 90 | 80 | 90 | 20 | 30 | 0 | 40 | 70 | 70 | 10 | Barnyardgrass plant response rating [4]: 80; Plant response rating, Ragweed ([5]; 500 g ai/ha): 80; Plant response rating, Ryegrass, Italian ([6]; 500 g ai/ha): 100; Plant response rating, Kochia (kochia (Bassia scoparia) [7]; 500 g ai/ha): 90; Plant response rating, Barnyardgrass ([8]; 500 g ai/ha): 100; Plant response rating, Pigweed ([9]; 500 g ai/ha): 70; Kochia plant response rating (kochia (Bassia scoparia) [10]; [17]): 40; Foxtail, Giant plant response rating [11, 17]: 50; Pigweed plant response rating [12, 17]: 90; Wheat plant response rating [13, 17]: 60; Galium plant response rating [14, 17]: 90; Blackgrass plant response rating [15]: 20 |
| COC1CCCN(C(=O)c2cc(NS(=O)(=O)C(F)(F)F)c(C)cc2C)CC1 (stereo not shown) [Compound 137] | 10 | – | 30 | – | 100 | – | 0 | – | 30 | 60 | 100 | 30 | 100 | 100 | 20 | 0 | 30 | 0 | 80 | 0 | Plant response rating, Ragweed [1, 20]: 0; Plant response rating, Corn (corn (Zea mays); [20]): 30; Plant response rating, Foxtail, Giant [2, 21]: 50; Plant response rating, Ryegrass, Italian [3, 20]: 0; Plant response rating, Barnyardgrass ([4]; 31 g ai/ha): 10; Plant response rating, Ragweed [5, 21]: 20; Plant response rating, Ryegrass, Italian [6, 21]: 60; Plant response rating, Kochia (kochia (Bassia scoparia) [7]; [21]): 30; Plant response rating, Barnyardgrass [8, 21]: 20; Plant response rating, Pigweed [9, 21]: 80; Plant response rating, Kochia (kochia (Bassia scoparia) [10]; [20]): 0; Plant response rating, Foxtail, Giant [11, 20]: 0; Plant response rating, Pigweed [12, 20]: 50; Plant response rating, Wheat [13, 20]: 0; Plant response rating, Galium [14, 20]: 30; Plant response rating, Blackgrass ([15]; 31 g ai/ha): 0 |
| Cc1cc(C)c(N(S(=O)(=O)C(F)(F)F)S(=O)(=O)C(F)(F)F)cc1C1=NOC2(CCC(C)(C)CC2)C1 [Compound 139] | 0 | 0 | 0 | 0 | 0 | 20 | 0 | 0 | 0 | 0 | 50 | 0 | 0 | 20 | 0 | 0 | 40 | 0 | 50 | 0 | Barnyardgrass plant response rating [4]: 0; Plant response rating, Ragweed ([5]; 500 g ai/ha): 30; Plant response rating, Ryegrass, Italian ([6]; 500 g ai/ha): 70; Plant response rating, Kochia (kochia (Bassia scoparia) [7]; 500 g ai/ha): 60; Plant response rating, Barnyardgrass ([8]; 500 g ai/ha): 30; Plant response rating, Pigweed ([9]; 500 g ai/ha): 70; Kochia plant response rating (kochia (Bassia scoparia) [10]; [17]): 50; Foxtail, Giant plant response rating [11, 17]: 0; Pigweed plant response rating [12, 17]: 80; Wheat plant response rating [13, 17]: 0; Galium plant response rating [14, 17]: 80; Blackgrass plant response rating [15]: 0 |
